For 34 compounds, inhibition results are on record in US4661505A, “Leukotriene antagonists” (Eli Lilly and Company, priority 1982, dated 1987).

The target in this experiment is T1, LTD4 evoked ileal contractions (Cavia porcellus, UniProt Q2NNR5).
T1 construct: A section of terminal ileum was removed, the lumen cleaned, and the tissue divided into 2.5 cm. segments; from tissue; host or cells: terminal ileum of male Hartley guinea pigs
T1 sequence (Q2NNR5 1-340): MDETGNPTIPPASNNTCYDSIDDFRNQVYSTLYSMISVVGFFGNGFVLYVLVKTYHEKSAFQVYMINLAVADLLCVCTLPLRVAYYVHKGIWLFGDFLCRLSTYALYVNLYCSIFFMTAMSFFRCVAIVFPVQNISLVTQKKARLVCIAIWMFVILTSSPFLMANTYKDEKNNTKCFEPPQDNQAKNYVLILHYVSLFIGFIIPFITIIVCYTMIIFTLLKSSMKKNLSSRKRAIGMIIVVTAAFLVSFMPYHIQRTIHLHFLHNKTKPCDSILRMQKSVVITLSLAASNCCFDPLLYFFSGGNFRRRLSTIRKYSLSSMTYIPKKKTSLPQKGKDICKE
Kind of experiment: Antagonism of LTD4-evoked contraction of isolated guinea pig ileum (single concentration). In kind it is cell-based. The following applies: pure LTD4, 5 minute exposure, read-out: Percent Inhibition of LTD4 evoked ileal contractions; for inhibition at 10 µM: 1 × 10^-5 M; for inhibition at 3 µM: 3 × 10^-6 M; for inhibition at 1 µM: 1 × 10^-6 M. The protocol:
Male, Hartley guinea pigs weighing 200-450 grams were killed by decapitation. A section of terminal ileum was removed, the lumen cleaned, and the tissue divided into 2.5 cm. segments. The ilea were mounted in 10 ml. tissue baths containing Krebs-bicarbonate solution of the following composition in mmoles/liter: KCl, 4.6; CaCl2.2H2 O, 1.2; KH2 PO4, 1.2; MgSO4.7H2 O, 1.2; NaCl, 118.2; NaHCO3, 24.8 and dextrose, 10.0. The bath fluid was maintained at 37° C. and aerated with 95 percent oxygen and 5 percent CO2. In addition, the buffer contained 1×10^-6 M atropine to reduce ileal spontaneous activity. In studies with crude SRS-A, 1×10^-6M pyrilamine was used to mitigate the actions of histamine present along with the biologically active leukotrienes. Isometric measurements were made with a Grass FTO3C force-displacement transducer and recorded on a Grass polygraph as change in grams of force. A passive force of 0.5 g. was applied to the tissues. After an appropriate equilibration period, single submaximal control responses to either SRS-A or pure LTD4 were obtained. Following a 5 minute exposure of the ileum to an experimental drug, the control concentration of SRS-A or LTD4 was added to the tissue bath. The response of the ileum to SRS-A or LTD4 in the presence of the drug was compared to the response in the absence of the drug.
*Compounds marked with an asterisk were tested using crude SRSA as the
ileumcontracting agent; all other compounds were tested using pure

SMILES strings stand for the structures. Where a name gives a salt, the structure may show the parent alone.

With `CCCc1c(OCCCCCCN(C)C)ccc(C(C)=O)c1O` [Example 38, N,N-Dimethyl-[6-(4-acetyl-3-hydroxy-2-propylphenoxy)hexyl]amine hydrochloride], the inhibition (as a rule, the drop in the measured response relative to a control, in per cent) at 10 µM was determined as 60% and the inhibition at 3 µM came to 30%. In the case of `CCCc1c(OCCCCc2nnn[nH]2)ccc(C(C)=O)c1O` [Example 8, 5-[4-(4-Acetyl-3-hydroxy-2-propylphenoxy)butyl]-tetrazole], the inhibition at 1 µM was found to be 89% and the inhibition at 3 µM worked out at 100%. As to `CCCc1c(OCCCCC(C)(C)C(=O)O)ccc(C(C)=O)c1O` [Example 45, 6-(4-Acetyl-3-hydroxy-2-propylphenoxy)-2,2-dimethylhexanoic acid], the inhibition at 10 µM amounted to 94% and the inhibition at 3 µM was determined as 73%.

In the case of `CCCc1c(OCCCCC(=O)N(C)C)ccc(C(C)=O)c1O` [Example 56, N,N-dimethyl-5-(4-acetyl-3-hydroxy-2-propylphenoxy)pentanoic acid amide], the inhibition at 1 µM was determined as 17% and the inhibition at 3 µM amounted to 42%.

Consider `CCCC(CCCCC(=O)O)Oc1ccc(C(C)=O)c(O)c1` (stereo not shown) [Example 49, 6-(4-Acetyl-3-hydroxyphenoxy)nonanoic acid], for which the inhibition at 10 µM was found to be 18%. As to `CCCc1c(OCCCSC(=N)N)ccc(C(C)=O)c1O` [Example 60, S-[3-(4-Acetyl-3-hydroxy-2-propylphenoxy)propyl]-isothiuronium hydrobromide], the inhibition at 1 µM was found to be 28% and the inhibition at 3 µM was found to be 55%.

Turning to `CCCc1c(OCCCCCc2nnn(CC(=O)O)n2)ccc(C(C)=O)c1O` [Example 51, 5-(2H)-[5-(4-acetyl-3-hydroxy-2-propylphenoxy)pentyl]-2-tetrazolylacetic acid], the inhibition at 1 µM worked out at 69%. For the compound `CCCc1c(OCCCCCCSc2nn[nH]n2)ccc(C(C)=O)c1O` [Example 71, 5-[6-(4-Acetyl-3-hydroxy-2-propylphenoxy)hexanethio]-tetrazole], the inhibition at 10 µM is 100% and the inhibition at 1 µM worked out at 95%. Regarding `CCCc1c(OCCCCC(=O)OCC)ccc(C(C)=O)c1O` [Example 54, Ethyl 5-(4-acetyl-3-hydroxy-2-propylphenoxy)pentanoate], the inhibition at 1 µM stood at 40% and the inhibition at 3 µM was determined as 56%.

For `CCCc1c(OCCCCCc2nnnn2C)ccc(C(C)=O)c1O` [Example 52, 1-Methyl-5-(1H)-[5-(4-acetyl-3-hydroxy-2-propylphenoxy)pentyl]-tetrazole], the inhibition at 1 µM worked out at 38%. Regarding `CCCc1c(OC(CCCCC(=O)O)c2ccccc2)ccc(C(C)=O)c1O` (stereo not shown) [Example 19, 6-(4-Acetyl-3-hydroxy-2-propylphenoxy)-6-phenylhexanoic acid], the inhibition at 10 µM came out at 64% and the inhibition at 3 µM came out at 35%. In the case of `CCCc1c(OCCCCCCCSc2nn[nH]n2)ccc(C(C)=O)c1O` [Example 72, 5-[7-(4-Acetyl-3-hydroxy-2-propylphenoxy)heptanethio]-tetrazole], the inhibition at 1 µM came out at 100%. On to `CCCc1c(OCCCCC(=O)NO)ccc(C(C)=O)c1O` [Example 61, 5-(4-Acetyl-3-hydroxy-2-propylphenoxy)pentanehydroxamic acid], for which the inhibition at 1 µM came out at 28% and the inhibition at 3 µM was 70%. Turning to `CCCc1c(OCCCCCc2nnnn2CC(=O)O)ccc(C(C)=O)c1O` [Example 50, 5-(1H)-[5-(4-Acetyl-3-hydroxy-2-propylphenoxy)pentyl]-1-tetrazolylacetic acid], the inhibition at 1 µM was 66%.

Turning to `CCCc1c(OCCCCCCCCCCC(=O)O)ccc(C(C)=O)c1O` [Example 33, 11-(4-Acetyl-3-hydroxy-2-propylphenoxy)undecanoic acid], the inhibition at 10 µM turned out to be 92% and the inhibition at 3 µM amounted to 79%. On to `CCCc1c(OCCCCC(C)(C)C(=O)OC)ccc(C(C)=O)c1O` [Example 44, Methyl 6-(4-acetyl-3-hydroxy-2-propylphenoxy)-2,2-dimethylhexanoate], for which the inhibition at 3 µM is 55%. Regarding `CC(=O)c1ccc(OC(CCCCC(=O)O)c2ccc(Cc3ccccc3)cc2)cc1O` (stereo not shown) [Example 16, 6-(4-Acetyl-3-hydroxyphenoxy)-6-(4-benzylphenyl)hexanoic acid], the inhibition at 10 µM was 86% and the inhibition at 3 µM was found to be 70%. The corresponding values for `CCCc1c(OCCCCCCN2CCN(C)CC2)ccc(C(C)=O)c1O` [Example 37, N-Methyl-N'-[6-(4-acetyl-3-hydroxy-2-propylphenoxy)hexyl]piperazine dihydrochloride] are 78% and 32%. As to `CCCc1c(OC(CCC)CCCCC(=O)O)ccc(C(C)=O)c1O` (stereo not shown) [Example 48, 6-(4-Acetyl-3-hydroxy-2-propylphenoxy)nonanoic acid], the inhibition at 10 µM came out at 34%. Still for that read-out and setting: under `CC(=O)c1ccc(OCCCCC(C)(C)C(=O)O)cc1O` [Example 47, 6-(4-Acetyl-3-hydroxyphenoxy)-2,2-dimethylhexanoic acid] stands 22%.

Turning to `CCCc1c(OCCCCCCCC(=O)O)ccc(C(C)=O)c1O` [Example 30, 8-(4-Acetyl-3-hydroxy-2-propylphenoxy)octanoic acid], the inhibition at 10 µM amounted to 94% and the inhibition at 1 µM stood at 62%. `CCCc1c(OCCCCC(N)=O)ccc(C(C)=O)c1O` [Example 55, 5-(4-Acetyl-3-hydroxy-2-propylphenoxy)pentanoic acid amide]: the inhibition at 1 µM worked out at 28% and the inhibition at 3 µM worked out at 59%. `CCCc1c(OCCCCC(C)(C)c2nnn[nH]2)ccc(C(C)=O)c1O` [Example 39, 5-[5-(4-Acetyl-3-hydroxy-2-propylphenoxy)-1,1-dimethylpentyl]-tetrazole]: the inhibition at 1 µM was found to be 89%.

Consider `CCCc1c(OCCCCCCCCCC(=O)O)ccc(C(C)=O)c1O` [Example 32, 10-(4-Acetyl-3-hydroxy-2-propylphenoxy)decanoic acid], for which the inhibition at 10 µM came to 92%, the inhibition at 1 µM turned out to be 46% and the inhibition at 3 µM was 85%. In the case of `COC(=O)C(C)(C)CCCCOc1ccc(C(C)=O)c(O)c1` [Example 46, Methyl 6-(4-acetyl-3-hydroxyphenoxy)-2,2-dimethylhexanoate], the inhibition at 10 µM is 23%. Turning to `CC(=O)c1ccc(OC(C)CCCCC(=O)O)cc1O` (stereo not shown) [Example 41, 6-(4-Acetyl-3-hydroxyphenoxy)heptanoic acid], the inhibition at 3 µM turned out to be 10%. As for `CCCc1c(OCCCCCCCCCCCCc2nnn[nH]2)ccc(C(C)=O)c1O` [Example 14, 5-[12-(4-Acetyl-3-hydroxy-2-propylphenoxy)dodecyl]-tetrazole], the inhibition at 1 µM was 22% and the inhibition at 3 µM came out at 47%. `CCCc1c(OCCCCCCO)ccc(C(C)=O)c1O` [Example 42, 6-(4-Acetyl-3-hydroxy-2-propylphenoxy)-1-hexanol]: the inhibition at 10 µM stood at 74% and the inhibition at 3 µM worked out at 46%. In the case of `CCCc1c(OC(CCCCC(=O)O)c2ccc(Cc3ccccc3)cc2)ccc(C(C)=O)c1O` (stereo not shown) [Example 15, 6-(4-Acetyl-3-hydroxy-2-propylphenoxy)-6-(4-benzylphenyl)hexanoic acid], the inhibition at 10 µM is 37%. Turning to `CCCc1c(OCCCCCCC(=O)O)ccc(C(C)=O)c1O` [Example 29, 7-(4-Acetyl-3-hydroxy-2-propylphenoxy)heptanoic acid], the inhibition at 10 µM came to 84% and the inhibition at 1 µM came out at 43%. On to `CCCc1c(OCCCCCCN2CCOCC2)ccc(C(C)=O)c1O` [Example 35, N-[6-(4-Acetyl-3-hydroxy-2-propylphenoxy)hexyl]morpholine hydrochloride], for which the inhibition at 10 µM stood at 80% and the inhibition at 3 µM turned out to be 47%. Regarding `CCCc1c(OCCCc2nnn[nH]2)ccc(C(C)=O)c1O` [Example 23, 5-[3-(4-Acetyl-3-hydroxy-2-propylphenoxy)propyl]-tetrazole], the inhibition at 1 µM is 15%.

Take `CCCc1c(OCCCCc2nnn[nH]2)ccc(C(=O)c2ccccc2)c1O` [Example 43, 5-[4-(4-Benzoyl-3-hydroxy-2-propylphenoxy)butyl]-tetrazole]: the inhibition at 1 µM came out at 34% and the inhibition at 3 µM is 56%. Regarding `CC(=O)c1ccc(OC(CCCCC(=O)O)c2ccc(-c3ccccc3)cc2)cc1O` (stereo not shown) [Example 18, 6-(4-Acetyl-3-hydroxyphenoxy)-6-(4-biphenyl)hexanoic acid], the inhibition at 3 µM was determined as 34%.
